According to patent publication US11980620B2, “Compounds and methods for treatment of Diamond Blackfan anemia” (THE CHILDREN'S MEDICAL CENTER CORPORATION, priority 2017, dated 2024):

What was measured:
[1] = system: erythroid cells from CB CD34+; experiment: Enucleation efficiency of GLYA+ cells at end of stage III; type: cell-based, human; settings: treatment during stages I-III; vehicle 2.4%±1.2
Procedure: (FIG. 12A) Erythroid differentiation of control and DBA CD34-5F cells treated with DMSO vehicle or SMER28 (10 μM) during the initial CD34^+ progenitor phase (day 0-4 of differentiation), or stage I of erythroid culture (day 4-9 of differentiation). Percent of erythroid cells after stage I of differentiation is indicated in top left for each condition, and quantitated in (FIG. 12B). Data are shown as mean f s.e.m. of 4 independent experiments, with 2 control and 4 DBA iPSCs. (FIG. 12C) Same as (FIG. 12A) for CB CD34+ cells transduced with shRPS19 hairpins. GFP^+ RPS19^sh and GFP^− control cells were quantitated separately. […] (FIG. 12D) RBC pellets at the end of stage III initiated with equal numbers of CD34-5F or CB progenitors. SMER28 was added at […]. (FIG. 12E) May-Grunwald-Giemsa stain of erythroid cells from CB CD34^+ at end of stage III. Arrows indicate enucleated RBCs, which are quantitated by flow cytometry. (FIG. 12F) Quantitation of the enucleation efficiency (left) of GLYA^+ cells. Data in FIGS. 12E-12F represents 3 independent experiments. For all panels, *p<0.05, **p<0.01.
Erythroblasts proliferate rapidly to give rise to terminally differentiated RBCs. […]

[2] = system: mice with irradiation-induced anemia; experiment: Irradiation-induced anemia in mice, peripheral blood RBC counts and hematocrit; type: in vivo, mouse; settings: 10 mg/kg, 3 weeks, sub-lethally irradiated mice
Procedure: (§1) (FIG. 10A) SMER28 rescues RBC output in rps29^+/− zebrafish embryos. The level of hemoglobin in the yolk sac was visualized 40hpf with benzidine staining. Images are representative of the proportion of embryos indicated (of total counted). (FIG. 10B) Quantitation of SMER28 rescue for a range of 0.1-1 μM, with embryos grouped by high, medium, and low levels of hemoglobin staining. (FIG. 10C) Peripheral blood (PB) RBC counts and hematocrit in mice with irradiation-induced anemia. Mice were treated with the PEG400-based vehicle containing DMSO (VEH) (n=11), 1 mg/kg Dex (sodium-phosphate) (n=13), or 10 mg/kg SMER28 (n=9) for 3 weeks, bled, and assessed. Data are combined from 3 independent experiments. (FIG. 10D) Erythroid cells as proportion of the human graft in mice transplanted with DBA CD34-5F progenitors, and treated as in (FIG. 1c). (FIG. 10E) Levels of human engraftment in NSG mouse bone marrow (BM) transplanted with CB CD34^+ cells. Mice were treated with DMSO plus vehicle (VEH) (n=10), 1 mg/kg Dex (sodium-phosphate) (n=6), or 2 mg/kg SMER28 (n=11) for 4 weeks. (FIG. 10F) The proportion of erythroid, myeloid, and lymphoid (B cells) lineages within the human graft in vehicle- and SMER28-treated mice transplanted with CB CD34^+ cells. Only the effect on the erythroid lineage was significant. Data in FIGS. 10E-10G are pooled from 2 independent experiments. […]

DBA CD34-5F cells = experiment: NSG mice transplanted with DBA CD34-5F progenitors, erythroid proportion of human graft; type: in vivo
Procedure: as §1

CB CD34+ cells = type: in vivo, NSG mice
Procedure: (FIG. 10A) SMER28 rescues RBC output in rps29^+/− zebrafish embryos. The level of hemoglobin in the yolk sac was visualized 40hpf with benzidine staining. Images are representative of the proportion of embryos indicated (of total counted). (FIG. 10B) Quantitation of SMER28 rescue for a range of 0.1-1 μM, with embryos grouped by high, medium, and low levels of hemoglobin staining. (FIG. 10C) Peripheral blood (PB) RBC counts and hematocrit in mice with irradiation-induced anemia. Mice were treated with the PEG400-based vehicle containing DMSO (VEH) (n=11), 1 mg/kg Dex (sodium-phosphate) (n=13), or 10 mg/kg SMER28 (n=9) for 3 weeks, bled, and assessed. Data are combined from 3 independent experiments. (FIG. 10D) Erythroid cells as proportion of the human graft in mice transplanted with DBA CD34-5F progenitors, and treated as in (FIG. 1c). (FIG. 10E) Levels of human engraftment in NSG mouse bone marrow (BM) transplanted with CB CD34^+ cells. Mice were treated with DMSO plus vehicle (VEH) (n=10), 1 mg/kg Dex (sodium-phosphate) (n=6), or 2 mg/kg SMER28 (n=11) for 4 weeks. (FIG. 10F) The proportion of erythroid, myeloid, and lymphoid (B cells) lineages within the human graft in vehicle- and SMER28-treated mice transplanted with CB CD34^+ cells. Only the effect on the erythroid lineage was significant. Data in FIGS. 10E-10G are pooled from 2 independent experiments. For all panels, *p<0.05, * *p<0.01.
Drug treatments. SMER28 was purchased from Tocris and diluted in 10 mM aliquots in DMSO. The final concentration for CD34-5F and CB CD34^+erythroid treatments was 0.2-10 μM as indicated in the text. The final concentration for K562 cell treatments was 20-40 μM. Ferric citrate (1-50 μM) and deferoxamine (100-200 μM) (Sigma) were dissolved in PBS and added on days 0-4 of “expansion” culture, and washed off prior to erythroid stage I (days 4-9) differentiation. For in vivo experiments, SMER28 aliquots were diluted in vehicle solution: 30% PEG-400, 5% propylene glycol, and 0.5% Tween-80. Dosing for human xenograft experiments was 2 mg/kg; for mouse models 10-20 mg/kg. Dexamethasone was purchased as Dex-sodium phosphate (DexSP) water-soluble formulation (Santa Cruz), and diluted in PBS vehicle (1 mg/kg). NSG mice were sub-lethally irradiated at 275 rads, and administered 100 μl of drug or vehicle by oral gavage daily.

LC3 = experiment: Autophagic marker LC3 levels in liver of treated mice; type: in vivo, mouse
Excerpt: FIGS. 11A-11C show effect of SMER28 on CD34+ progenitors. (FIG. 11A) Protein levels of LC3-I and LC3-II in control and SMER28 treated mice. GADPH is used as a loading control. […] (FIG. 11C) Atg5 morpholino treatment of rps29^+/− zebrafish.
In following evaluation, the effects of administration of SMER28 to mice with irradiation-induced anemia, a model that enables dose-finding and initial testing of safety and bioactivity. […] To assess bioactivity, we measured the levels of autophagic marker LC3 in treated animals. […] (FIG. 10C). We tested the effect of this compound on human cells by treating NSG mice transplanted with human CD34-5F and CB cells. SMER28 increased the output of GlyA^+ RBCs from DBA CD34-5F cells (FIG. 10D).

## C=CCNc1ncnc2ccc(Br)cc12 [SMER28, 6-Bromo-N-2-propenyl-4-quinazolinam]
[1]
  efficiency of enucleation: 5.6%±1.6
[2]; p=0.04
  hematocrit vs vehicle: modestly elevated
[2]; p=0.07
  peripheral blood RBC counts vs vehicle: modestly elevated
DBA CD34-5F cells
  output of GlyA+ RBCs from DBA CD34-5F cells: increased
CB CD34+ cells; 2 mg/kg SMER28 for 4 weeks
  distribution of myeloid and lymphoid lineages in human graft: did not affect
CB CD34+ cells; 2 mg/kg SMER28 for 4 weeks, vehicle 5.5%, p=0.05
  erythroid contribution to human graft (RBCs as proportion of human graft): 13.0%
CB CD34+ cells; 2 mg/kg for 4 weeks, ns vs vehicle
  human chimerism in bone marrow: 25.2%
LC3
  LC3-I and LC3-II levels in the liver: modestly increased
